# Patent publication US20050131056A1, “2- thia-dibenzoazulenes as inhibitors of tumor necrosis factor production and intermediates for the preparation thereof” (Pliva-Istrazivacki Institut d.o.o., priority 2002, published 2005)
# Test system: TNF-α and IL-1 secretion
# Experiment: investigated assays, not specified which (TNF-α/IL-1 secretion in human PBMC, in mouse peritoneal macrophages, LPS-induced secretion in mice, writhing assay, LPS-induced shock)
# Conditions: at least two of five assays, not named; active = IC50 20 μM or lower (PBMC), 10 μM or lower (macrophages), 30% or more TNF-α inhibition at 10 mg/kg, analgetic activity as acetylsalicylic acid or better, survival 40% or more at 30 mg/kg
# Description: The inhibitory action of the present compounds upon TNF-α and IL-1 secretion was determined by the following in vitro and in vivo experiments:
# Human peripheral blood mononuclear cells (PBMC) were prepared from heparinized whole blood after separating PBMC on Ficoll-Paque™Plus (Amersham-Pharmacia). To determine the TNF-α level, 3.5-5×10^4 cells were cultivated in a total volume of 200 μl for 18 to 24 hours on microtitre plates with a flat bottom (96 wells, Falcon) in RPMI 1640 medium, into which there were added 10% FBS (Fetal Bovine Serum, Biowhittaker) previously inactivated at 54° C./30 min, 100 units/ml of penicillin, […] of streptomycin and 20 mM HEPES (GIBCO). The cells were incubated at 37° C. in an atmosphere with 5% CO2 and 90% humidity. […] The IL-1 level was determined in an assay under the same conditions and with the same number of cells and the same concentration of stimuli stimulus by ELISA procedure (R&D Systems). The percentage of inhibition of TNF-α or IL-1 production was calculated by the equation: • % inhibition=[1−(TS-NC)/(PC-NC)]*100. […]
# In order to obtain peritoneal macrophages, Balb/C mouse strain males, age 8 to 12 weeks, were injected i.p. with 300 μg of zymosan (SIGMA) dissolved in a phosphate buffer (PBS) in a total volume of 0.1 ml/mouse. […] The TNF-α level in the cell supernatant was determined by ELISA procedure (R&D Systems, Biosource). […]
smiles,measurement,value
"O=Cc1scc2c1-c1ccccc1Sc1ccccc1-2 [Example 14, 2,8-Dithia-dibenzo[e,h]azulene-1-carbaldehyde]",activity in the investigated assays,activity in at least two investigated assays
